US20180171411A1, “GFRalpha1 AS A BIOMARKER FOR CISPLATIN-INDUCED CHEMORESISTANCE AND METASTASIS” (THE BOARD OF REGENTS OF THE UNIVERSITY OF TEXAS SYSTEM, priority 2015, published 2018)

What was measured:
MG-63/GFRα1 tumors = test: MG-63/GFRα1 xenograft in BALB/c nude mice; type: in vivo; conditions: CQ 60 mg/kg, cisplatin 3 mg/kg, once a week
Procedure: FIG. 5. GFRα1-mediated autophagy promotes chemoresistance and tumor growth in vivo. (a) BALB/c nude mice (n =40) were injected with MG-63 cells that were transfected with either control or GFRα1 expressing vector. Tumor volume was measured every 3 or 4 days. Data are shown as mean±SEM. ** p<0.05. (b) BALB/c nude mice (n=20) were injected with MG-63 cells that were transfected with either control or GFRα1 shRNA. Tumor volume was measured every 3 or 4 days. Data are shown as mean±SEM. ** p<0.05. (c) Tumors that were generated from mice injected with MG-63 cells containing GFRα1 expressing vector were directly injected with PBS, CQ, cisplatin, or cisplatin+CQ. Tumor volume was measured every 4 days. Data are shown as mean±SEM. ** p<0.05 vs PBS, CQ, or cisplatin-treated tumors. (d) Left, representative images of immunofluorescence staining of HMGB1 in a section from tumors generated from mice injected with MG-63 cells containing GFRα1 expressing vector and then treated with PBS, CQ, cisplatin, or cisplatin+CQ. Right, quantitative analysis of percentage of cytoplasmic HMGB1-positive cells in HMGB1-positive tumors. The values are represented as a mean±s.d.m. (n=3). ** denotes p<0.05 by t-test. (e) Left, representative images of TUNEL-positive cells in a section from tumors generated from mice injected with MG-63 cells containing GFRα1 expressing vector and then treated with PBS, CQ, cisplatin, or cisplatin+CQ. Right, quantitative analysis of percentage of TUNEL-positive cells in HMGB1-positive tumors. The values are represented as a mean±s.d.m. (n=3). ** denotes p<0.05 by t-test. (0 Survival rate of mice injected with MG-63 cells containing GFRα1 expressing vector and then treated with either cisplatin or cisplatin+CQ. (g) Representative images of immunohistochemical staining of GFRα1 in a section from human osteosarcoma patient before and after cisplatin treatment. (h) Representative images of immunofluorescence staining of GFRα1 and HMGB1 in a section from human osteosarcoma patient before and after cisplatin treatment.
Tumor formation in nude mice. The mice used in this study were 6-week-old female BALB/c nude mice purchased from Orient Bio Inc. (Seongnam, Korea). […] The tumor size was measured with a caliper every 3 or 4 days. […] The tumor size was measured with a caliper every 4 days. […] were calculated from caliper measurements of tumor dimensions in mm using the formula for a prolate ellipsoid: (L×W^2)/2 where L is the longer of the two-measurements.
Statistical analysis. Survival data was analyzed by the Kaplan-Meier and log-rank test with GraphPad Prism v5.04 (GraphPad Software, La Jolla Calif.). Plating efficiency (PE, %)=(Number of colonies counted/Number of cells plated)×100. […] All values are expressed as the mean±standard deviation (SD). […]

[1] = test system: GFRα1-deficient MG-63 and U-2 OS cells; test: WST-1 cell viability of GFRα1-deficient (siRNA) osteosarcoma cells; type: cell-based, human; conditions: GFRα1 siRNA 48 h, then agent 24 h
Procedure: FIG. 6. Cell viability of GFRα1-deficient osteosarcoma cells after treatment of chemotherapeutic agents. MG-63 and U-2 OS cells were transfected with either control siRNA or GFRα1 siRNA for 48 h and then treated with different concentrations of doxorubicin, cisplatin, or methotrexate for 24 h. Cell viability was measured using the WST-1 assay. The values are represented as a mean±s.d.m. (n=3). ** denotes P<0.05 by t-test. (a) MG-63 cells. (b) U-2 OS cells.
Small interfering RNA (siRNA)-based Experiments. Human GFRα1 siRNA, Beclin 1 siRNA, HMGB1 siRNA, AMPK siRNA, c-Src siRNA, NFκB p50 siRNA, APE siRNA and Negative (control) siRNA were purchased from Santa Cruz Biotechnology. Cell lines were transiently transfected with siRNA duplexes using Lipofectamine® RNAiMAX (Life Technologies) according to manufacturer's instructions.
Cell viability assays. WST-1 cell viability assay reagent was purchased from Roche. Equal numbers of cells were seeded in triplicate wells in 48-well plates and maintained in growth medium containing 10% FBS). Cells were cultured with PBS, GDNF (50 ng/mL), GDNF (50 ng/ml)+cisplatin (20 μM), or cisplatin (20 μM) in the presence of serum for 24 hr. Cells were also preincubated with inhibitors (3-MA, PP1, Compound C, Baf and CQ) for 1 hr before stimulating with PBS, GDNF, GDNF+cisplatin, or cisplatin. WST-1 reagent was then treated to the cells at the indicated times and incubated for 2 hr at 37° C. Cell viability was determined by measuring the absorbance after adding WST-1. The spectrophotometric absorbance of the samples was measured using an Ultra Multifunctional Microplate Reader (Tecan, Durham, N.C.) at 450 nm. Experiments were done at least in triplicate using separate cultures.

## N.N.[Cl][Pt][Cl] [cisplatin, Cis-Diamineplatinum(II) dichloride]
MG-63/GFRα1 tumors
  tumor progression: allowed the tumors to survive
  tumor volume compared to PBS-treated mice: decreased
[1]
  cell proliferation of GFRα1-deficient cells compared to control cells: significantly reduced
